Values joined by “and” are separate entries in the source; they are usually repeats but may differ in a detail not shown here. Equal entries are not always repeated. Where two headings read alike, the source gives them in different places. Values belong to the compound of their own block, whether it stands above or below them.
Key:
[1] = Tablet strength graded 1-5 by hand and by dropping the tablet; assay type: physicochemical; parameters: key: strength grade on a 1-5 scale
Description: (§1) A variety of candidate materials were used to make compressed tablets, and the tablet properties, such as strength and disintegration time, were examined. Particles of each material were compressed under different pressure by a Carver press. The hardness of the tablet was tested by hand for initial qualitative measurement and also by dropping the tablet from a certain height onto the laboratory bench top or to the floor. The tablet strength was graded by assigning a number ranging from 1-5. […] Each tablet was placed into 5 mL water and observed for 30 seconds to see if it disintegrated and dissolved in that time period.

[2] = Tablet placed into 5 mL water and observed for 30 seconds for disintegration and dissolution; assay type: physicochemical
Description: as §1

[3] = compression pressure 70.2 MPa, 5 mL water, 30 seconds
[4] = compression pressure 105 MPa, 5 mL water, 30 seconds
[5] = summary of the materials survey, pressure not stated
[6] = compression pressure 35.1 MPa, 5 mL water, 30 seconds

Tablet Strength ([1]; compression pressure 70.2 MPa): 2
Compound: OC[C@@H](O)[C@@H](O)[C@H](O)[C@H](O)CO [Mannitol]

Tablet Strength ([1]; compression pressure 35.1 MPa): 1
Tablet Strength ([1]; compression pressure 70.2 MPa): 2
Tablet Strength ([1]; compression pressure 105 MPa): 2
Disintegration Characteristics [2, 3]: No disintegration.
Disintegration Characteristics [2, 4]: No disintegration.
Compound: O=C(O)c1ccccc1O [Salicylic Acid]

Tablet Strength ([1]; compression pressure 70.2 MPa): 2
Tablet Strength ([1]; compression pressure 91.3 MPa): 2
Disintegration Characteristics ([2]; compression pressure 91.3 MPa, 5 mL water, 30 seconds): No improvement.
Compound: OC[C@H]1O[C@@](CO)(O[C@H]2O[C@H](CO)[C@@H](O)[C@H](O)[C@H]2O)[C@@H](O)[C@@H]1O [Sucrose]

Tablet Strength ([1]; compression pressure 70.2 MPa): 4
Disintegration (screening summary) [2, 5]: fast disintegration
Compound: O=P([O-])([O-])O.[Ca+2] [DITAB, Calcium Phosphate, Dibasic]

Tablet Strength ([1]; compression pressure 105 MPa): 2
Disintegration (screening summary) [2, 5]: fast disintegration
Compound: NCC(=O)O [Glycine]

Tablet Strength ([1]; compression pressure 35.1 MPa): 1
Tablet Strength ([1]; compression pressure 70.2 MPa): 2
Tablet Strength ([1]; compression pressure 105 MPa): 2
Disintegration Characteristics [2, 6]: Instant disintegration
Disintegration Characteristics [2, 3]: Instant disintegration
Disintegration Characteristics [2, 4]: Instant disintegration
Disintegration (screening summary) [2, 5]: fast disintegration
Compound: O=C1NS(=O)(=O)c2ccccc21.[Na] [Sodium Saccharin]

Tablet Strength ([1]; compression pressure 70.2 MPa): 3
Disintegration (screening summary) [2, 5]: fast disintegration
Compound: OC[C@H]1O[C@H](O[C@H]2[C@H](O)[C@@H](O)[C@H](O)O[C@@H]2CO)[C@H](O)[C@@H](O)[C@@H]1O [Maltose]
Disintegration Characteristics [2, 3]: Total disintegration of the entire tablet.

Tablet Strength ([1]; compression pressure 105 MPa): 3
Compound: O=P([O-])(O)O.O=P([O-])(O)O.[Ca+2] [Calcium Phosphate, Monobasic]

Tablet Strength ([1]; compression pressure 70.2 MPa): 3
Compound: CC(C)Cc1ccc(C(C)C(=O)O)cc1 (stereo not shown) [Ibuprofen, reference compound]

Disintegration Characteristics [2, 6]: No disintegration.
Disintegration Characteristics [2, 3]: No disintegration.
Disintegration Characteristics [2, 4]: No disintegration.
Compound: Cn1c(=O)c2[nH]cnc2n(C)c1=O [Theophyline, reference compound]

Tablet Strength ([1]; compression pressure 105 MPa): 3
Disintegration (screening summary) [2, 5]: fast disintegration
Compound: N[C@@H](CCC(=O)O)C(=O)O [Glutamic acid]

The next lines start with the compound.

Compound: [Cl-].[Na+] [Sodium Chloride]
Tablet Strength ([1]; compression pressure 70.2 MPa): 2
Tablet Strength ([1]; compression pressure 105 MPa): 2
Disintegration Characteristics [2, 3]: No disintegration.
Disintegration Characteristics [2, 4]: No disintegration.

Compound: O=C([O-])[O-].[Na+].[Na+] [Sodium Carbonate]
Tablet Strength [1]: 4 and 3
Disintegration Characteristics [2]: No disintegration.

Compound: Cn1c(=O)c2c(ncn2C)n(C)c1=O [Caffeine, reference compound]
Tablet Strength ([1]; compression pressure 35.1 MPa): 3
Tablet Strength ([1]; compression pressure 70.2 MPa): 4
Disintegration Characteristics [2, 3]: Breaking into particles after 20 sec.

Compound: CC(=O)[O-].CC(=O)[O-].[Zn+2] [Zinc Acetate]
Tablet Strength [1]: 3
Disintegration Characteristics [2]: No disintegration.

Compound: [Ca+2].[Cl-].[Cl-] [Calcium Chloride]
Tablet Strength [1]: 4

Compound: OC[C@H]1O[C@@H]2O[C@H]3[C@H](O)[C@@H](O)[C@@H](O[C@H]4[C@H](O)[C@@H](O)[C@@H](O[C@H]5[C@H](O)[C@@H](O)[C@@H](O[C@H]6[C@H](O)[C@@H](O)[C@@H](O[C@H]7[C@H](O)[C@@H](O)[C@@H](O[C@H]8[C@H](O)[C@@H](O)[C@@H](O[C@H]1[C@H](O)[C@H]2O)O[C@@H]8CO)O[C@@H]7CO)O[C@@H]6CO)O[C@@H]5CO)O[C@@H]4CO)O[C@@H]3CO [Beta-Cyclodextrin]
Tablet Strength ([1]; compression pressure 35.1 MPa): 4
Tablet Strength ([1]; compression pressure 105 MPa): 4
Disintegration Characteristics [2, 6]: No disintegration.
Disintegration Characteristics [2, 4]: No disintegration.

Compound: CC(=O)Oc1ccccc1C(=O)O [Aspirin, reference compound]
Tablet Strength ([1]; compression pressure 35.1 MPa): 2
Tablet Strength ([1]; compression pressure 70.2 MPa): 3
Tablet Strength ([1]; compression pressure 105 MPa): 4

Compound: O.OC[C@H]1O[C@@H](O[C@H]2[C@H](O)[C@@H](O)C(O)O[C@@H]2CO)[C@H](O)[C@@H](O)[C@H]1O (stereo partly shown) [Lactose monohydrate]
Tablet Strength ([1]; compression pressure 70.2 MPa): 3

Compound: O=C([O-])[O-].[Ca+2] [Calcium Carbonate]
Tablet Strength [1]: 2
Disintegration (screening summary) [2]: fast disintegration

Compound: Calcium Gluconate
Tablet Strength ([1]; compression pressure 35.1 MPa): 4

Compound: CC(=O)[O-].CC(=O)[O-].[Ca+2] [Calcium Acetate]
Tablet Strength [1]: 4
Disintegration Characteristics [2]: No disintegration.

Reference: patent US20060134195A1, “Mannose-based fast dissolving tablets” (priority 2002, published 2006)
